The record followed here is patent US7358235B2, “Analogs of nitrobenzylthioinosine” (Gruenenthal GmbH, priority 2002, dated 2008).

The target of data set [1] is T1, nucleoside transport protein (Homo sapiens, UniProt Q99808).
T1 construct: tissue Blood Bank, Leiden University Medical Center; host or cells: human erythrocyte membranes (ghosts) from whole human blood
T1 sequence (Q99808 1-456): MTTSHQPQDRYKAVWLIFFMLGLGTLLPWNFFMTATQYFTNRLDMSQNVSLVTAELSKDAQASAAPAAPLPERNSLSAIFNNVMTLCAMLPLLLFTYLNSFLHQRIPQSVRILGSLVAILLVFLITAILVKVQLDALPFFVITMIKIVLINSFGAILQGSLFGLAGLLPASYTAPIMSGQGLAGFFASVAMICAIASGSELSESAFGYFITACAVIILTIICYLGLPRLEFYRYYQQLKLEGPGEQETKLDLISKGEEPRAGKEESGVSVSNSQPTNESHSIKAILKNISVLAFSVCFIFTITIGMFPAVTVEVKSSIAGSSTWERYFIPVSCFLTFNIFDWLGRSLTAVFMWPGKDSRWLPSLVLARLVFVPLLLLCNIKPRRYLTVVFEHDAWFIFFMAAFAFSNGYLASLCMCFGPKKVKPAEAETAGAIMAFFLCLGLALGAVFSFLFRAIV
Kind of data set: [3H]NBTI radioligand binding assay on human erythrocyte membranes. As to conditions: for affinity / activity in words: comparison within the series, [3H]NBTI binding. As for the experimental part:
All final products were tested in a radioligand binding assay.
Erythrocytes and membrane preparation. Whole human blood (Blood Bank, Leiden University Medical Center) was stirred in lysis buffer (½ v/v, 10 mM MgCl2 in 10 mM Tris HCl, pH 8.0 at 25° C.) for 1 h. After homogenization it was centrifuged for 50 min at 19,000 rpm. The supernatant was removed and the pellet was dissolved in ice-cold water and centrifuged again for 50 min. This procedure was repeated two more times. After removal of the last supernatant 25 mL of buffer (50 mM Tris HCl, pH 7.4 at 25° C.) was added to the final pink pellet. This suspension was homogenized and the ghosts were collected. Aliquots were stored at −80° C. until further use.
Saturation and displacement equilibrium NBTI binding to membranes prepared from human erythrocytes (ghosts) was determined at 25° C. based on a method previously described.

The mark [2] stands for this setting: inhibition of equilibrium binding of [3H]NBTI, Table 1, read-out: Ki(nM), affinity for the nucleoside transport protein on human erythrocyte membranes.
The mark [3] stands for this setting: human erythrocyte membranes, [3H]NBTI 1.5 nM, 30 minutes at 25° C., Tris.HCl pH 7.4, read-out: Binding (Nucleoside Transporter (Ki)).

Structures are written as SMILES. “Also recorded” adds a separate entry of the source. Like-named read-outs stand apart in the source and are kept apart here. Marks after values point to notes of the source that are not given here.

Turning to `OCC1OC(n2cnc3c(SCc4cccc5nc[nH]c45)ncnc32)C(O)C1O` (stereo not drawn) [Example 38], the “affinity / activity in words” value in data set [1] was “negative effect on affinity; also recorded: reduced affinity when compared to their counterparts”.
With `OCC1OC(n2cnc3c(SCc4cccc5nc[nH]c45)ncnc32)C(O)C1O` (stereo not drawn) [Example 12, 2-[6-(3H-Benzoimidazol-4-ylmethylsulfanyl)-purin-9-yl]-5-hydroxymethyl-tetrahydro-furan-3,4-diol], the “Percentage of displacement at concentration of 10 μM” value in data set [1] (10 μM, [3H]NBTI, human erythrocyte membranes) is recorded as 42%*. Besides, in data set [1] (10 μM, human erythrocyte membranes, [3H]NBTI), the “Binding (Nucleoside Transporter), percentage at 10 μM” value is reported as 42%.
Turning to `O=[N+]([O-])c1ccc(CSc2ncnc3c2ncn3CCCCOC2CCCCO2)cc1` (stereo not drawn) [Example 46], the “affinity / activity in words” value in data set [1] was “higher affinity”.
By Ki is commonly meant a measure of affinity in units of concentration, obtained from inhibition or displacement. For the molecule `OCC1OC(n2cnc3c(SCc4cccc5nonc45)ncnc32)C(O)C1O` (stereo not drawn) [Example 4], the Ki in data set [1] (setting [2]) came to 9.7 nM.
For the molecule `OCC1OC(n2cnc3c(SCc4ccc5nsc(Br)c5c4)ncnc32)C(O)C1O` (stereo not drawn) [Example 10, 2-[6-(3-Bromo-benzo[c]isothiazol-5-ylmethylsulfanyl)-purin-9-yl]-5-hydroxymethyl-tetra hydro-furan-3,4-diol], in data set [1] (setting [3]), the Ki worked out at 42 nM.
For `OCC1OC(n2cnc3c(SCc4ccccc4)cc(Cl)nc32)C(O)C1O` (stereo not drawn) [Example 23, 2-(7-Benzylsulfanyl-5-chloro-imidazo[4,5-b]pyridin-3-yl)-5-hydroxymethyl-tetrahydro-furan-3,4-diol], the “affinity / activity in words” value in data set [1] is “decrease in affinity”. In addition, the Ki in data set [1] (setting [3]) and in data set [1] (setting [2]) was 670 nM each time.
As for `CCCCn1cnc2c(SCc3ccc4nscc4c3)ncnc21` [Example 21, 6-(Benzo[c]isothiazol-5-ylmethylsulfanyl)-9-butyl-9H-purine], the Ki in data set [1] (setting [3]) and in data set [1] (setting [2]) was 3100 nM throughout.
By melting point is commonly meant the temperature of the solid-liquid transition. As to `O=[N+]([O-])c1ccc(CSc2ncnc3c2ncn3Cc2ccccc2)cc1` [Example 26, 9-Benzyl-6-(4-nitro-benzylsulfanyl)-9H-purine], the melting point worked out at 139 °C. In data set [1] (setting [3]), the Ki is 135 nM.
Consider `CCCCn1cnc2c(SCc3cccc4nonc34)ncnc21` [Example 20, 6-(Benzo[1,2,5]oxadiazol-4-ylmethylsulfanyl)-9-butyl-9H-purine], for which the Ki in data set [1] (setting [3]) and in data set [1] (setting [2]) was 5600 nM throughout.
As to `O=[N+]([O-])c1ccc(CSc2ncnc3c2ncn3C2CCCC2)cc1` [Example 18, 9-Cyclopentyl-6-(4-nitro-benzylsulfanyl)-9H-purine], the Ki in data set [1] (setting [3]) and in data set [1] (setting [2]) was 736 nM throughout.
As to `O=[N+]([O-])c1ccc(CSc2ncnc3c2ncn3C2CCCCO2)cc1` (stereo not drawn) [Example 44], in data set [1], the “affinity / activity in words” value is “decrease in activity compared to compound 53”.
For `CCCCn1cnc2c(SCc3ccc4nsc(Br)c4c3)ncnc21` [Example 22, 6-(3-Bromo-benzo[c]isothiazol-5-ylmethylsulfanyl)-9-butyl-9H-purine], the Ki in data set [1] (setting [3]) and in data set [1] (setting [2]) was 682 nM in each case.
As to `OC[C@H]1O[C@@H](n2cnc3c(SCc4cc(Cl)cc5nonc45)ncnc32)[C@H](O)[C@@H]1O` [Compound 16], in data set [1] (setting [2]), the Ki amounted to 25 nM.
Regarding `O=[N+]([O-])c1ccc(CSc2ncnc3c2ncn3CCCCOC2CCCCO2)cc1` (stereo not drawn) [Example 16, 6-(4-Nitro-benzylsulfanyl)-9-[4-(tetrahydro-pyran-2-yloxy)-butyl]-9H-purine], the “affinity / activity in words” value in data set [1] is on record as “did not improve the binding affinity”. The Ki in data set [1] (setting [3]) and in data set [1] (setting [2]) was 488 nM each time.
The molecule `OCC1OC(n2cnc3c(SCc4ccc5nsc(Br)c5c4)ncnc32)C(O)C1O` (stereo not drawn) [Example 31] showed an affinity gain in data set [1] (bromination of 28 to yield 31) of 2.6 fold. Further, the Ki in data set [1] (human erythrocyte membranes, [3H]NBTI, read-out: Ki) is 42 nM.
Consider `O=[N+]([O-])c1ccc(CSc2cc(Cl)nc3c2ncn3C2OC(CO)C(O)C2O)cc1` (stereo not drawn) [Example 24, 2-[5-Chloro-7-(4-nitro-benzylsulfanyl)-imidazo[4,5-b]pyridin-3-yl]-5-hydroxymethyl-tetrahydro-furan-3,4-diol], for which the “affinity / activity in words” value in data set [1] is reported as “decrease in affinity”. The Ki in data set [1] (setting [3]) and in data set [1] (setting [2]) was 47 nM in each case. Also, the “increase of affinity relative to 60” value in data set [1] (introduction of a nitro group) is “approx. tenfold”.
Take `O=[N+]([O-])c1ccc(CSc2ncnc3c2ncn3C2CCCCO2)cc1` (stereo not drawn) [Example 15, 6-(4-Nitro-benzylsulfanyl)-9-(tetrahydro-pyran-2-yl)-9H-purine]: the Ki in data set [1] (setting [3]) and in data set [1] (setting [2]) was 1200 nM in each case.
In the case of `CCCCn1cnc2c(SCc3ccc([N+](=O)[O-])cc3)ncnc21` [Example 19, 9-Butyl-6-(4-nitro-benzylsulfanyl)-9H-purine], the Ki in data set [1] (setting [3]) and in data set [1] (setting [2]) was 238 nM in each case.
`OCC1OC(n2cnc3c(SCc4ccc5nonc5c4)ncnc32)C(O)C1O` (stereo not drawn) [Example 3, 2-[6-(Benzo[1,2,5]oxadiazol-5-ylmethylsulfanyl)-purin-9-yl]-5-hydroxymethyl-tetrahydro-furan-3,4-diol]: in data set [1] (setting [2]), the inhibition constant Ki was determined as 1.5 nM.
Turning to `OCC1OC(n2cnc3c(SCCc4ccccc4)ncnc32)C(O)C1O` (stereo not drawn) [Example 27, 2-Hydroxymethyl-5-(6-phenethylsulfanyl-purin-9-yl)-tetrahydro-furan-3,4-diol], in data set [1] (setting [3]), the Ki was determined as 12 nM.
Regarding `O=[N+]([O-])c1ccc(CSc2ncnc3c2ncn3C2CCCO2)cc1` (stereo not drawn) [Example 14, 6-(4-Nitro-benzylsulfanyl)-9-(tetrahydro-furan-2-yl)-9H-purine], the Ki in data set [1] (setting [3]) and in data set [1] (setting [2]) was 937 nM in each case.
In the case of `O=[N+]([O-])c1ccc(CSc2ncnc3c2ncn3CCCCO)cc1` [Example 17, 4-[6-(4-Nitro-benzylsulfanyl)-purin-9-yl]-butan-1-ol], the Ki in data set [1] (setting [3]) and in data set [1] (setting [2]) was 1140 nM in each case.
`OCC1OC(n2cnc3c(SCc4ccc5nc[nH]c5c4)ncnc32)C(O)C1O` (stereo not drawn) [Example 11, 2-[6-(3H-Benzoimidazol-5-ylmethylsulfanyl)-purin-9-yl]-5-hydroxymethyl-tetra hydro-furan-3,4-diol]: the Ki in data set [1] (setting [3]) and in data set [1] (setting [2]) was 191 nM in each case.
Take `OCC1OC(n2cnc3c(SCc4ccc5nc[nH]c5c4)ncnc32)C(O)C1O` (stereo not drawn) [Example 37]: the “affinity / activity in words” value in data set [1] was “negative effect on affinity”.
The same measure, in the same setting: for `O=[N+]([O-])c1ccc(CSc2ncnc3c2ncn3C2CCCO2)cc1` (stereo not drawn) [Example 43] the value was “decrease in activity compared to compound 53”.
With `OCC1OC(n2cnc3c(SCc4ccc5nsc(Br)c5c4)ncnc32)C(O)C1O` (stereo not drawn) [Example 2, 2-[6-(3-Bromo-benzo[c]isothiazol-5-ylmethylsulfanyl)-purin-9-yl]-5-hydroxymethyl-tetrahydro-furan-3,4-diol], the Ki in data set [1] (setting [2]) was found to be 42 nM.
Regarding `O=[N+]([O-])c1ccc(CSc2ncnc3c2ncn3C2CCCC2)cc1` [Example 48], the “affinity / activity in words” value in data set [1] is reported as “decrease in activity compared to a simple n-butyl substituent”.
As for `O=[N+]([O-])c1ccc(CSc2ncnc3c2ncn3CCCO)cc1` [Example 25, 3-[6-(4-Nitro-benzylsulfanyl)-purin-9-yl]-propan-1-ol], in data set [1] (setting [3]), the Ki was determined as 130 nM.
Consider `OCC1OC(n2cnc3c(SCc4cccc5conc45)ncnc32)C(O)C1O` (stereo not drawn) [Example 7, 2-[6-(Benzo[c]isoxazol-7-ylmethylsulfanyl)-purin-9-yl]-5-hydroxy methyl-tetrahydro-furan-3,4-diol], for which, in data set [1] (setting [2]), the Ki is 666 nM.
